From patent US8716231B2, “Use of benzo-fused heterocycle sulfamide derivatives for the treatment of pain” (Janssen Pharmaceutica NV, priority 2005, dated 2014)

Legend:
[1] = system: spontaneous locomotor activity; assay: Taxol Induced Peripheral Neuropathy Model (pilot), Open Field testing; assay type: in vivo, Sprague-Dawley rats; conditions: 100 mg/kg po daily + Taxol, Day 11
[2] = system: formalin-induced hyperalgesia (paw licking); assay: Formalin-Induced Hyperalgesia Model; assay type: in vivo, CF-1 mice; conditions: Mus musculus; i.p., 2 hours before formalin; 95% CI range 53.6-225 mg/kg; read-out: median effective dose (ED50) for a 50% or greater reduction in AUC, secondary phase (phase 2, inflammatory)
Procedure: Adult male CF-1 mice weighing 2-0 g were obtained from Charles River (Wilmington, Mass.). All animals were house on a 12:12 light:dark cycle and permitted free access to both food and water, except when removed from the home cage for experimental procedures.
In this model, the injection of formalin elicits a distinct biphasic behavioral profile characterized by the mouse licking the affected paw. Immediately after the injection, the mouse licks the paw for about 10 minutes. This corresponds to phase 1 (acute response) and is followed by a brief latency period where there is little behavioral activity. A more prolonged period of about 20-30 minutes of paw licking ensues which constitutes phase 2 (inflammatory).
Two hours after administration, formalin was injected sub-dermally (20 μL, 27 gauge needle) into the plantar surface of the right hind foot. The bevel of the needle was placed facing down toward the skin surface. […] The cumulative length of licking for each 2 minute period was recorded. […] Animals were euthanized following the conclusion of the experiment.
Area under the curve (AUC) determinations were made using the GraphPad Prism Version 3.03. Total AUC was calculated for both the dosed and control groups for both acute and inflammatory phases. The AUC of individual animals for each phase was also calculated and converted to a percentage of total AUC of control.

[3] = system: paclitaxel-evoked mechano-allodynia and mechano-hyperalgesia; assay: Taxol Induced Peripheral Neuropathy Model (longer term study, Example 20); assay type: in vivo, Sprague-Dawley rats
Procedure: Paclitaxel (Taxol®, Bristol-Myers-Squibb; 6 mg/ml in a 50:50 mixture of Cremophor and ethanol) was diluted just before use with saline to a concentration of 2 mg/ml and injected IP in a volume of 1 ml/kg) on four alternate days (D0, D2, D4, and D6).
Adult male Sprague-Dawley rats (Harlan, Indianapolis, Ind.; Frederick, Md. breeding colony) were caged on sawdust bedding in groups of 3-4 with food and water available ad libitum and a 12:12 hr light-dark cycle.
Group 3 was treated with an equal volume of vehicle, daily, starting on D0 (the same day as the beginning of paclitaxel dosing).
The animals were habituated to the testing environment on three separate days and then three daily baseline sessions were given to measure the normal response rate to stimulation with von Frey hairs exerting 4 g or 15 g of pressure (4 gVFH and 15 gVFH). Normal rats rarely, if ever, withdraw from stimulation with 4 gVFH; thus, a post-paclitaxel increase in responding to this stimulus is indicative of mechano-allodynia. Normal rats withdraw from stimulation with 15 gVFH 10-20% of the time; thus an increased response frequency to this stimulus is indicative of mechano-hyperalgesia.
The animals were positioned beneath upturned plastic mouse cages atop an elevated platform with wire-mesh flooring. Each VFH was applied to the glabrous skin of the mid-heel and the presence or absence of a withdrawal response was noted. This was repeated 5 times on each hind paw and the animal's responses were summarized as a percent response score (e.g., 5 withdrawal responses to 15gVFH stimulation would yield a score of 50%). Behavior was assessed by an observer who was blind as to group assignment.
Behavioral tests for paclitaxel's effects began on day 13 (D13) and were repeated on D15, D17, D21, D24, D28, D31, D35 and D38. […] For these days the drug was given at 0900 h and behavioral tests began at 1300 h. Significant paclitaxel-evoked mechano-allodynia and mechano-hyperalgesia were expected to develop 10-14 days after the last injection of paclitaxel.

[4] = system: Taxol®-induced degeneration of sciatic nerve and right hind paw; assay: Taxol Induced Peripheral Neuropathy Model (pilot), histopathology; assay type: in vivo, Sprague-Dawley rats; conditions: 100 mg/kg po daily + Taxol; Day 13
Procedure: The animals were housed in polycarbonate plastic cages, 2 animals per cage, at a temperature of 18-26° C., 30-70% humidity, 12-hour light/dark cycle, with food and water available ad libityum.
On days 1, 3, 5, and 7, the rats received an ip (intraperitoneal) injection of Taxol® (2 mg/kg).
On Day 13, the animals were euthanized by carbon dioxide asphyxiation. The sciatic nerve and right hind paw were excised and placed in 10% neutral buffered formalin. The harvested tissues were blocked, embedded in paraffin, sectioned and stained with hemotoxylin and eosin. The tissue was examined using light microscopy and scored by an evaluator blind to the treatment regimen. The tissue was ranked on a scale of 0 to 3 based on the degree and amount of axonal disruption observed in the section, with 0 being a normal appearance of the axon, 1 to 2 being a mild to moderate disruption of the axons and a 3 being a complete disruption and Wallerian degeneration of the axons (Cavaletti, G, Tredici, G, Braga, M, Tazzari, S. Experimental peripheral neuropathy induced in adult rats by repeated intraperitoneal administration of Taxol®. Exper Neurol 133:64-72,1995). Data were analyzed using one-way ANOVA and Dunnett's test, with statistical significance at p<0.05.

[5] = system: CFA induced thermal hypersensitivity (radiant heat paw withdrawal latency); assay: Complete Freund's Adjuvant (CFA)-induced Model of Inflammatory Pain; assay type: in vivo, Sprague-Dawley rats; conditions: 560 mg/kg oral; 4 hr after oral administration
Procedure: Intraplantar injection of CFA in rats results in a long-lasting inflammatory reaction, characterized by edema and a pronounced hypersensitivity to both thermal and mechanical stimuli. This hypersensitivity peaks between 24-72 hours after injection and can last for several weeks. This assay predicts the analgesic, antiallodynic and/or antihyperalgesic effect of test compounds.
Test compound and controls were dissolved in the appropriate volume of 0.5% HPMC or 10% solutol in 0.5% hydoxypropyl methylcellulose (HPMC). Solutions were prepared to provide the final dose in a volume of 2.5 mL/kg or 5 mL/kg p.o. for rats. Male, Sprague-Dawley rats from Charles Rivers Laboratories (Portage, Me.), weighing between 250 and 350 grams at the time of study, were used for the CFA paw radiant heat studies.
Rats in the CFA study were moved to a testing room the day of the CFA injection, where they remained for the duration of the study. […]
On the day of study, rats were given a 100 μL (1 μg/μL) intraplantar injection of CFA (1:1 CFA:saline) into their left hindpaw. […] Percent Reversal of hyperalgesia was calculated for each animal as [(treatment response)−(post-CFA response)]/[(pre-CFA response)−(post-CFA response)]×100. Average % reversal of hyperalgesia was then calculated for each treatment group (n=5-6 rats/group). […]

[6] = both 60 mg/kg and 120 mg/kg PO daily for 20 days from D0, paclitaxel 2 mg/kg IP D0, D2, D4, D6

SMILES | vertical rearing (Open Field) ([1]; p<0.05) | horizontal movement (Open Field) ([1]; vs Taxol alone) | ED50 [2] [mg/kg] | continuation of suppressive effect after the last injection ([3]; 60 mg/kg and 120 mg/kg PO daily) | side-effects ([3]; 60 mg/kg and 120 mg/kg PO daily for 20 days) | development of mechano-allodynia (4 gVFH test) [3, 6] | development of mechano-hyperalgesia (15 gVFH test) [3, 6] | degeneration in the sciatic nerve (histopathology) [4] | severity of degeneration in the right hind paw (histopathology) [4] | peak reversal of thermal hypersensitivity (compared with the 24-hr post-CFA baseline) [5] [%]
NS(=O)(=O)NC[C@H]1COc2cc(Cl)ccc2O1 [Compound #8, (2S)-(−)-N-(6-Chloro-2,3-dihydro-benzo[1,4]dioxin-2-ylmethyl)-sulfamide] | decreased vertical rearing compared to Taxol® alone | no difference between treatment groups | 101 | approximately 11 days | no apparent side-effects | suppressed the development of mechano-allodynia and mechano-hyperalgesia | suppressed the development of mechano-allodynia and mechano-hyperalgesia | positive trend to decreased degeneration in the sciatic nerve, although the differences were not statistically significant | no effect on the severity of Taxol®-induced degeneration in the right hind paw | 86.0
NCC1(CC(=O)O)CCCCC1 [gabapentin, reference compound] |  |  |  |  |  |  |  |  |  | 68.6
